Tests used:
Type in all cases: cell-based
[1] = test system: T cell IL-2 production in human whole blood; assay: Human Whole Blood Assay (inhibition of T cell IL-2 production); details: T-cell, 10 μM Thapsigargin overnight, plasma IL-2 by AlphaLISA, read-out: HWB
Description: Inhibition of T cell IL-2 production CRAC compounds were tested in human whole blood from normal donors. 200 μl of human whole blood was aliquoted into each well of a round bottom 96 well plate. Concentration-response curves were generated for test compounds and CsA (as controls) by performing serial dilutions of the compounds and incubating each concentration in a single well for 30 min (experiment was performed in triplicate). Following incubation, the blood was stimulated with 10 μM Thapsigargin (SIGMA) overnight at 37° C. IL-2 concentrations in the plasma were determined by AlphaLISA IL-2 assay (Perkin Elmer). Data analysis was performed using GraphPad PRISMS.

[2] = test system: IL-2 production in Jurkat cell (ATCC); assay: Jurkat IL-2 Production Assay; details: Homo sapiens, Jurkat cells, 18-20 h incubation, serum/stimulant variant (1% FBS/PHA or 30% FBS/PMA+ionomycin) not given
Description: Jurkat IL-2 Production Assay Cell: Jurkat cell (ATCC) was grown in RPMI 1640 with 10% FBS and 1% penicillin/streptomycin. The cell density was kept at 1.2˜1.8×10^6/mL in culture flask before seeding into culture plate, and the cell density in the plate was 0.5×10^6/2004/well. Culture Media: RPMI 1640 with 1% FBS or 30% FBS for high serum assay. Test Compound: Serial dilution was done in 100% DMSO, and intermediate dilution was done with RPMI 1640 medium with 1% FBS. The DMSO final concentration in culture well was 0.25%. Stimulant: PHA (Sigma#L9017-10MG) was used for the assay with 1% FBS in culture medium, and added after 10 minutes exposure of cell to compound/DMSO. The PHA final concentration in culture well was 5 μg/mL. PMA (Sigma# P-8139 5MG)/Ionomycin (Sigma# I0634-5MG) was used for the assay with 30% FBS in culture medium, and added at same time point as the 1% FBS culture assay. The final concentration of PMA was 50 ng/mL, and Ionomycin final concentration was 500 ng/mL. Incubation: At 37° C. with 5% CO2 and 95% humidity for 18 h˜20 h. IC50: IC50 was calculated with the data analysis software XLfit4, General Pharmacology model 251.

[3] = test system: PBMC from healthy donors; assay: [3H]Thymidine Incorporation (MLR); details: mixed PBMC responder/stimulator 1:1, 4 days
Description: [3H]Thymidine Incorporation (MLR)
Freshly isolated PBMC from healthy donors were either used as responders, where the cells were pre-treated with various concentrations of inhibitors (as indicated in the figure legends), or stimulators where the cells were pre-treated with 0.05 mg/ml Mitomycin C for 20 min. Stimulator cells were washed twice with RPMI 1640 and mixed with responder PBMCs at a 1:1 ratio, totaling 2×10^5 cells/well in quadruplicate in a 96-well U-bottom tissue culture plates (Falcon). Cells were cultured in complete RPMI 1640 (supplemented with 10% FBS, 1 mM sodium pyruvate, and 100 IU/ml penicillin-streptomycin, 0.01M HEPES and 55 μM β-ME [Invitrogen]) for 4 days at 37° C. in 5% CO2. Cultures were pulsed with 0.5 μCi [3H]-thymidine (PerkinElmer) during the last 6 hrs of culture. Cells were harvested on filter plates using a 96-well plate harvester (PerkinElmer), and the incorporation of [3H]-thymidine was measured as cpm in a Topcount Microplate scintillation counter (PerkinElmer). Stimulator cells alone or responder cells alone were set up in parallel as controls.

Row | IC50 [1] [nM] | IC50 [2] [nM] | Compound | IC50 [3] [nM]
1 | 320 | 20 | CCc1sc(-c2ccncc2)nc1-c1ccc2c(c1)OCC(c1c(F)cccc1F)N2 (stereo not drawn) [Example 17, 3-(2,6-Difluoro-phenyl)-7-(5-ethyl-2-pyridin-4-yl-thiazol-4-yl)-3,4-dihydro-2H-benzo[1,4]oxazine] | 440
2 | 520 | 30 | CCc1sc(-c2cccnc2)nc1-c1ccc2c(c1)OCC(c1c(F)cccc1F)N2 (stereo not drawn) [Example 14, 3-(2,6-Difluoro-phenyl)-7-(5-ethyl-2-pyridin-3-yl-thiazol-4-yl)-3,4-dihydro-2H-benzo[1,4]oxazine] | 100
3 | 360 | 30 | CCc1sc(-c2cc(C)on2)nc1-c1ccc2c(c1)OCC(c1c(F)cccc1F)N2 (stereo not drawn) [Example 20, 3-(2,6-difluorophenyl)-7-(5-ethyl-2-(5-methylisoxazol-3-yl)thiazol-4-yl)-3,4-dihydro-2H-benzo[b][1,4]oxazine] | 430
4 | 870 | 20 | CCc1sc(-c2cnccn2)nc1-c1ccc2c(c1)OCC(c1c(F)cccc1F)N2 (stereo not drawn) [Example 16, 3-(2,6-difluorophenyl)-7-(5-ethyl-2-(pyrazin-2-yl)thiazol-4-yl)-3,4-dihydro-2H-benzo[b][1,4]oxazine] | 180
5 | 510 | 20 | CCn1nc(C(F)(F)F)cc1-c1ccc2c(c1)OCC(c1c(F)cccc1F)N2 (stereo not drawn) [Example 6, 3-(2,6-Difluoro-phenyl)-7-(2-ethyl-5-trifluoromethyl-2H-pyrazol-3-yl)-3,4-dihydro-2H-benzo[1,4]oxazine] | 110
6 | 430 | 30 | Cc1sc(-c2cccnc2)nc1-c1ccc2c(c1)OCC(c1c(F)cccc1F)N2 (stereo not drawn) [Example 12, 3-(2,6-Difluoro-phenyl)-7-(5-methyl-2-pyridin-3-yl-thiazol-4-yl)-3,4-dihydro-2H-benzo[1,4]oxazine] | 190
7 | 320 | 70 | CCn1nc(-c2cccnc2)cc1-c1ccc2c(c1)OCC(c1c(F)cccc1F)N2 (stereo not drawn) [Example 7, 3-(2,6-Difluoro-phenyl)-7-(2-ethyl-5-pyridin-3-yl-2H-pyrazol-3-yl)-3,4-dihydro-2H benzo[1,4]oxazine] | 330
